Test: DPPH radical scavenging antioxidant test
Conditions: 517 nm; for Inhibition (radical scavenging inhibition): compound 3 μM in ethanol + 0.2 mL DPPH (0.75 mM), 30 min incubation in the dark
Method: The antioxidant properties of the 4,4′-naphthalene-1,5-diylbis(diazene-2,1-diyl)diphenol were studied by adding 0.2 mL DPPH (0.75 mM)) to compound 4,4′-naphthalene-1,5-diylbis(diazene-2,1-diyl)diphenol (III) (3 μM) in ethanol. After 30 min of incubation in the dark, the absorbance was read against a blank at 517 nm. Ascorbic acid (vitamin C) was used as standard antioxidants (positive control). A blank sample was prepared by 0.2 ml of DPPH in 3 ml ethanol. A negative control sample was run using ethanol instead of the sample. The radical scavenging inhibition was calculated using the following equation: […]

| Structure (SMILES) | Inhibition (radical scavenging inhibition) [%] | antioxidant potential compared to vitamin C (result in words) (DPPH in vitro test, vitamin C as positive control) |
| --- | --- | --- |
| O=C1O[C@H]([C@@H](O)CO)C(O)=C1O [vit c, Ascorbic acid, reference compound] | 74 | – |
| Oc1ccc(/N=N\c2cccc3c(/N=N/c4ccc(O)cc4)cccc23)cc1 [Product III, 4,4′-naphthalene-1,5-diylbis(diazene-2,1-diyl)diphenol] | 54 | high potential as an antioxidant |

From US12006278B1, “4,4′-naphthalene-1,5-diylbis(diazene-2,1-diyl)diphenol as an antioxidant compound” (KING FAISAL UNIVERSITY, priority 2023, dated 2024)
